Measured values as given in ChEMBL document CHEMBL1155836, “Discovery of imidazole carboxamides as potent and selective CCK1R agonists” (Bioorg Med Chem Lett, 2008).
Active and inactive are the calls of the source. The calls are words filed in the database; no cut-off is given here.

molecular target: T1, Cholecystokinin receptor type A (Homo sapiens, UniProt P32238); experiment: Agonist activity against human CCK1 receptor; assay type: functional
T1 sequence (P32238 whole entry): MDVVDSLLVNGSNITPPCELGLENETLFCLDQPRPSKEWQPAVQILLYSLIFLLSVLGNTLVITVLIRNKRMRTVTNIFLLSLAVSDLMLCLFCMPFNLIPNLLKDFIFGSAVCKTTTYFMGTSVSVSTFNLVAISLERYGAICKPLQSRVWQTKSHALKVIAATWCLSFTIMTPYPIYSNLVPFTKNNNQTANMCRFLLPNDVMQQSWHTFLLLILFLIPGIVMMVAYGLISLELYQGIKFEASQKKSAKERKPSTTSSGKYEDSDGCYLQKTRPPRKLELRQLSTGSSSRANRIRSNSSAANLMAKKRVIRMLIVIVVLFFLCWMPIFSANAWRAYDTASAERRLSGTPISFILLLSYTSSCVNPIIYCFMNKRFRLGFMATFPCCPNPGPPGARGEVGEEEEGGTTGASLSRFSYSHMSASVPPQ

EC50 | SMILES
0.53 nM | CCOc1cccc(-n2cc(C(=O)N3CCN(c4cnc5ccccc5c4)CC3)nc2-c2ccccc2F)c1
0.14 nM | Cc1ccc(-c2nc(C(=O)N3CCN(c4cc(C(=O)O)c5ccccc5c4)CC3)cn2-c2ccc3c(c2)OCCO3)cc1
0.73 nM | CCOc1cccc(-n2cc(C(=O)N3CCN(c4cnc5ccccc5c4)CC3)nc2-c2ccc(C)cc2)c1 [listing 1 of 3 here]
0.13 nM | CCOc1cccc(-n2cc(C(=O)N3CCN(c4cnc5ccccc5c4)CC3)nc2-c2ccc(C)cc2F)c1
0.25 nM | CCOc1cccc(-n2cc(C(=O)N3CCN(c4cnc5ccccc5c4)CC3)nc2-c2ccc(F)cc2)c1

molecular target: T2, Gastrin/cholecystokinin type B receptor (Homo sapiens) (UniProt P32239); experiment: Agonist activity against human CCK2 receptor; assay type: functional
T2 sequence (whole entry): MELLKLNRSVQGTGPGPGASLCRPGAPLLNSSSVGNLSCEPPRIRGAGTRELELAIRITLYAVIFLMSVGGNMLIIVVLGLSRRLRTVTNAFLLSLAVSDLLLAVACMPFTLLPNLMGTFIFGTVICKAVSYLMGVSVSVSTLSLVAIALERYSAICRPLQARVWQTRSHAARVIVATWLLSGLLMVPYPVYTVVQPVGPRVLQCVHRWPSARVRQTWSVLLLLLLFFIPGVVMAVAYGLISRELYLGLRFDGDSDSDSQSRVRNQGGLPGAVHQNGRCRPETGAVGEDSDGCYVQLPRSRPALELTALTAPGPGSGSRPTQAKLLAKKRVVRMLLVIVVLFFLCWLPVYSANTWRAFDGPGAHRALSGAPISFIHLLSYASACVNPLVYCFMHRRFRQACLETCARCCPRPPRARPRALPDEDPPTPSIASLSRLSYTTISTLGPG

Activity | SMILES
inactive | CCOc1cccc(-n2cc(C(=O)N3CCN(c4cnc5ccccc5c4)CC3)nc2-c2ccccc2F)c1
inactive | Cc1ccc(-c2nc(C(=O)N3CCN(c4cc(C(=O)O)c5ccccc5c4)CC3)cn2-c2ccc3c(c2)OCCO3)cc1
inactive | CCOc1cccc(-n2cc(C(=O)N3CCN(c4cnc5ccccc5c4)CC3)nc2-c2ccc(C)cc2)c1 [listing 2 of 3 here]
inactive | CCOc1cccc(-n2cc(C(=O)N3CCN(c4cnc5ccccc5c4)CC3)nc2-c2ccc(C)cc2F)c1
inactive | CCOc1cccc(-n2cc(C(=O)N3CCN(c4cnc5ccccc5c4)CC3)nc2-c2ccc(F)cc2)c1

Second part, the compound before the results:

SMILES | Activity
CCOc1cccc(-n2cc(C(=O)N3CCN(c4cc(C(=O)O)c5ccccc5c4)CC3)nc2-c2ccc(C)cc2)c1 | inactive
CCOc1cccc(-n2cc(C(=O)N3CCN(c4cc(C(=O)O)c5ccccc5c4)CC3)nc2-c2ccc(C)cc2F)c1 | inactive

molecular target: Cholecystokinin receptor type A (Mus musculus, UniProt O08786); experiment: Agonist activity against mouse CCK1 receptor; assay type: functional
Sequence (O08786 whole entry, looked up): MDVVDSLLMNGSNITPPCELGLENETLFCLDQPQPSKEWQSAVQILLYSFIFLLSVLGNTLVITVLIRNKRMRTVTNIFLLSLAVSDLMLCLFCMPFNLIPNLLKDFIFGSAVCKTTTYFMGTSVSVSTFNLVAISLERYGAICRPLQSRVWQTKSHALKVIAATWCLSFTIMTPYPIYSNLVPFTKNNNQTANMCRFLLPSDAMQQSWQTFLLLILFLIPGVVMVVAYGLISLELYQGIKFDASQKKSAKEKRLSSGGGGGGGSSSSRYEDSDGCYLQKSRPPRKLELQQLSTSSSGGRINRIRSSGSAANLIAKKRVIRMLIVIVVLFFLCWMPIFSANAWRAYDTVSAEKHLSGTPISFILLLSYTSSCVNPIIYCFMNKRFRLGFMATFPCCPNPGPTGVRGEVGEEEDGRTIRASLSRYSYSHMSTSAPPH

EC50 | SMILES
1.5 nM | CCOc1cccc(-n2cc(C(=O)N3CCN(c4cc(C(=O)O)c5ccccc5c4)CC3)nc2-c2ccc(F)cc2)c1.O=C(O)C(F)(F)F
2.1 nM | CCOc1cccc(-n2cc(C(=O)N3CCN(c4cnc5ccccc5c4)CC3)nc2-c2ccc(C)cc2)c1 [listing 3 of 3 here]

test system: Mus musculus; experiment: Gallbladder emptying activity in mouse assessed as reduction of gallbladder weight at 0.001 mg/kg, po; assay type: functional; set-up: scale not given: the % may be the effect or the level left

SMILES | Activity
CCOc1cccc(-n2cc(C(=O)N3CCN(c4cc(C(=O)O)c5ccccc5c4)CC3)nc2-c2ccc(F)cc2)c1.O=C(O)C(F)(F)F | 69%

test system: Mus musculus; experiment: Gallbladder emptying activity in mouse assessed as reduction of gallbladder weight at 0.3 mg/kg, po; assay type: functional; set-up: scale not given: the % may be the effect or the level left

SMILES | Activity
CCOc1cccc(-n2cc(C(=O)N3CCN(c4cnc5ccccc5c4)CC3)nc2-c2ccc(C)cc2)c1 [listing 1 of 3 here] | 59%

molecular target: T3, Cholecystokinin receptor type A (Homo sapiens) (UniProt P32238); experiment: Agonist activity against human CCK1 receptor assessed as receptor activation at 10000 nM; assay type: functional
T3 sequence (whole entry): T1 sequence (P32238 whole entry)

Activity | SMILES
89% | CCOc1cccc(-n2cc(C(=O)N3CCN(c4cnc5ccccc5c4)CC3)nc2-c2ccccc2F)c1
107% | Cc1ccc(-c2nc(C(=O)N3CCN(c4cc(C(=O)O)c5ccccc5c4)CC3)cn2-c2ccc3c(c2)OCCO3)cc1
105% | CCOc1cccc(-n2cc(C(=O)N3CCN(c4cnc5ccccc5c4)CC3)nc2-c2ccc(C)cc2)c1 [listing 2 of 3 here]
86% | CCOc1cccc(-n2cc(C(=O)N3CCN(c4cnc5ccccc5c4)CC3)nc2-c2ccc(C)cc2F)c1
92% | CCOc1cccc(-n2cc(C(=O)N3CCN(c4cnc5ccccc5c4)CC3)nc2-c2ccc(F)cc2)c1

Continued, compound first:

SMILES | Activity
CCOc1cccc(-n2cc(C(=O)N3CCN(c4cc(C(=O)O)c5ccccc5c4)CC3)nc2-c2ccc(C)cc2)c1 | 105%
CCOc1cccc(-n2cc(C(=O)N3CCN(c4cc(C(=O)O)c5ccccc5c4)CC3)nc2-c2ccc(C)cc2F)c1 | 73%

test system: Mus musculus; experiment: Reduction in overnight food intake in wild-type mouse at 10 mg/kg; assay type: functional, organism-based; set-up: dose 10 mg/kg

SMILES | Activity
CCOc1cccc(-n2cc(C(=O)N3CCN(c4cc(C(=O)O)c5ccccc5c4)CC3)nc2-c2ccc(C)cc2)c1 | Active
CCOc1cccc(-n2cc(C(=O)N3CCN(c4cc(C(=O)O)c5ccccc5c4)CC3)nc2-c2ccc(C)cc2F)c1 | Active

test system: Mus musculus; experiment: Reduction in overnight food intake in lean mouse at 3 mg/kg, po; assay type: functional; set-up: scale not given: the % may be the effect or the level left

SMILES | Activity
CCOc1cccc(-n2cc(C(=O)N3CCN(c4cc(C(=O)O)c5ccccc5c4)CC3)nc2-c2ccc(F)cc2)c1.O=C(O)C(F)(F)F | 73%

test system: Mus musculus; experiment: Gallbladder emptying activity in mouse assessed as reduction of gallbladder weight at 0.1 mg/kg, po; assay type: functional, organism-based; set-up: dose 0.1 mg/kg

SMILES | Activity
CCOc1cccc(-n2cc(C(=O)N3CCN(c4cnc5ccccc5c4)CC3)nc2-c2ccc(C)cc2)c1 [listing 2 of 3 here] | inactive

molecular target: T4, Gastrin/cholecystokinin type B receptor (Homo sapiens, UniProt P32239); experiment: Inhibition of human CCK2 receptor
T4 sequence (P32239 whole entry): T2 sequence (whole entry)

IC50 | SMILES
> 10000 nM | CCOc1cccc(-n2cc(C(=O)N3CCN(c4cnc5ccccc5c4)CC3)nc2-c2ccccc2F)c1
> 10000 nM | Cc1ccc(-c2nc(C(=O)N3CCN(c4cc(C(=O)O)c5ccccc5c4)CC3)cn2-c2ccc3c(c2)OCCO3)cc1
> 10000 nM | CCOc1cccc(-n2cc(C(=O)N3CCN(c4cnc5ccccc5c4)CC3)nc2-c2ccc(C)cc2)c1 [listing 1 of 3 here]
> 10000 nM | CCOc1cccc(-n2cc(C(=O)N3CCN(c4cnc5ccccc5c4)CC3)nc2-c2ccc(C)cc2F)c1
> 10000 nM | CCOc1cccc(-n2cc(C(=O)N3CCN(c4cnc5ccccc5c4)CC3)nc2-c2ccc(F)cc2)c1

molecular target: T1, Cholecystokinin receptor type A; experiment: Inhibition of human CCK1 receptor

IC50 | SMILES
0.57 nM | CCOc1cccc(-n2cc(C(=O)N3CCN(c4cnc5ccccc5c4)CC3)nc2-c2ccccc2F)c1
0.14 nM | Cc1ccc(-c2nc(C(=O)N3CCN(c4cc(C(=O)O)c5ccccc5c4)CC3)cn2-c2ccc3c(c2)OCCO3)cc1
0.45 nM | CCOc1cccc(-n2cc(C(=O)N3CCN(c4cnc5ccccc5c4)CC3)nc2-c2ccc(C)cc2)c1 [listing 1 of 3 here]
0.24 nM | CCOc1cccc(-n2cc(C(=O)N3CCN(c4cnc5ccccc5c4)CC3)nc2-c2ccc(C)cc2F)c1
0.6 nM | CCOc1cccc(-n2cc(C(=O)N3CCN(c4cnc5ccccc5c4)CC3)nc2-c2ccc(F)cc2)c1

molecular target: T2, Gastrin/cholecystokinin type B receptor (Homo sapiens); experiment: Agonist activity against human CCK2 receptor assessed as receptor activation at 10000 nM; assay type: functional

Activity | SMILES
< 36% | CCOc1cccc(-n2cc(C(=O)N3CCN(c4cnc5ccccc5c4)CC3)nc2-c2ccccc2F)c1
< 36% | Cc1ccc(-c2nc(C(=O)N3CCN(c4cc(C(=O)O)c5ccccc5c4)CC3)cn2-c2ccc3c(c2)OCCO3)cc1
< 36% | CCOc1cccc(-n2cc(C(=O)N3CCN(c4cnc5ccccc5c4)CC3)nc2-c2ccc(C)cc2)c1 [listing 2 of 3 here]
< 36% | CCOc1cccc(-n2cc(C(=O)N3CCN(c4cnc5ccccc5c4)CC3)nc2-c2ccc(C)cc2F)c1
< 36% | CCOc1cccc(-n2cc(C(=O)N3CCN(c4cnc5ccccc5c4)CC3)nc2-c2ccc(F)cc2)c1

The remaining lines, values behind:

SMILES | Activity
CCOc1cccc(-n2cc(C(=O)N3CCN(c4cc(C(=O)O)c5ccccc5c4)CC3)nc2-c2ccc(C)cc2)c1 | < 36%
CCOc1cccc(-n2cc(C(=O)N3CCN(c4cc(C(=O)O)c5ccccc5c4)CC3)nc2-c2ccc(C)cc2F)c1 | < 36%

test system: Mus musculus; experiment: Reduction in overnight food intake in CCK1 receptor deficient mouse at 10 mg/kg; assay type: functional, organism-based; set-up: dose 10 mg/kg

SMILES | Activity
CCOc1cccc(-n2cc(C(=O)N3CCN(c4cc(C(=O)O)c5ccccc5c4)CC3)nc2-c2ccc(C)cc2)c1 | inactive
CCOc1cccc(-n2cc(C(=O)N3CCN(c4cc(C(=O)O)c5ccccc5c4)CC3)nc2-c2ccc(C)cc2F)c1 | inactive

molecular target: T2, Gastrin/cholecystokinin type B receptor (Homo sapiens); experiment: Inhibition of human CCK2 receptor at 10000 nM

inhibition | SMILES
< 24% | CCOc1cccc(-n2cc(C(=O)N3CCN(c4cnc5ccccc5c4)CC3)nc2-c2ccccc2F)c1
< 24% | Cc1ccc(-c2nc(C(=O)N3CCN(c4cc(C(=O)O)c5ccccc5c4)CC3)cn2-c2ccc3c(c2)OCCO3)cc1
< 24% | CCOc1cccc(-n2cc(C(=O)N3CCN(c4cnc5ccccc5c4)CC3)nc2-c2ccc(C)cc2)c1 [listing 2 of 3 here]
< 24% | CCOc1cccc(-n2cc(C(=O)N3CCN(c4cnc5ccccc5c4)CC3)nc2-c2ccc(C)cc2F)c1
< 24% | CCOc1cccc(-n2cc(C(=O)N3CCN(c4cnc5ccccc5c4)CC3)nc2-c2ccc(F)cc2)c1

The next lines start with the compound.

SMILES | inhibition
CCOc1cccc(-n2cc(C(=O)N3CCN(c4cc(C(=O)O)c5ccccc5c4)CC3)nc2-c2ccc(C)cc2)c1 | < 24%
CCOc1cccc(-n2cc(C(=O)N3CCN(c4cc(C(=O)O)c5ccccc5c4)CC3)nc2-c2ccc(C)cc2F)c1 | < 24%
